Earlier results, collected in patent publication US12440482B2, “1,4-dihydropyridine compositions, methods of making and use” (American Regent, Inc., priority 2019, dated 2025).

Compound: COC(=O)C1=C(C)NC(C)=C(C(=O)OCCN(C)Cc2ccccc2)C1c1cccc([N+](=O)[O-])c1 (stereo not shown) [nicardipine]
- solubility in water: only slightly soluble
